This experiment concerns the target T1, c-kit (Homo sapiens, UniProt P10721).
T1 construct: human Mo7e cells which endogenously express c-kit; endogenous in cells; host or cells: human Mo7e cells (promegakaryocytic leukemia line), stimulated with human recombinant SCF
The experiment is described as follows: Mo7e cell proliferation assay (SCF dependent proliferation). The experiment is classed as cell-based. As to conditions: Table 1, human Mo7e cells stimulated with SCF, 48 hours, CellTiter Glo, 1% FBS. The procedure:
Mo7e Cell Proliferation Assay The compounds of Table 1 and Table 2 were tested for inhibition of SCF dependent proliferation using human Mo7e cells which endogenously express c-kit in a 384 well format. […] After 48 hours of incubation at 37° C., cell viability was measured by adding 25 uL of CellTiter Glo (Promega) to the cells and the luminescence was measured by a […] camera (Molecular Devices). […] The IC50 value is given as that concentration of the test compound in question that provoke a response halfway between the baseline and maximum responses.

Like-named read-outs stand apart in the source and are kept apart here.

T1 sequence (P10721 26-976): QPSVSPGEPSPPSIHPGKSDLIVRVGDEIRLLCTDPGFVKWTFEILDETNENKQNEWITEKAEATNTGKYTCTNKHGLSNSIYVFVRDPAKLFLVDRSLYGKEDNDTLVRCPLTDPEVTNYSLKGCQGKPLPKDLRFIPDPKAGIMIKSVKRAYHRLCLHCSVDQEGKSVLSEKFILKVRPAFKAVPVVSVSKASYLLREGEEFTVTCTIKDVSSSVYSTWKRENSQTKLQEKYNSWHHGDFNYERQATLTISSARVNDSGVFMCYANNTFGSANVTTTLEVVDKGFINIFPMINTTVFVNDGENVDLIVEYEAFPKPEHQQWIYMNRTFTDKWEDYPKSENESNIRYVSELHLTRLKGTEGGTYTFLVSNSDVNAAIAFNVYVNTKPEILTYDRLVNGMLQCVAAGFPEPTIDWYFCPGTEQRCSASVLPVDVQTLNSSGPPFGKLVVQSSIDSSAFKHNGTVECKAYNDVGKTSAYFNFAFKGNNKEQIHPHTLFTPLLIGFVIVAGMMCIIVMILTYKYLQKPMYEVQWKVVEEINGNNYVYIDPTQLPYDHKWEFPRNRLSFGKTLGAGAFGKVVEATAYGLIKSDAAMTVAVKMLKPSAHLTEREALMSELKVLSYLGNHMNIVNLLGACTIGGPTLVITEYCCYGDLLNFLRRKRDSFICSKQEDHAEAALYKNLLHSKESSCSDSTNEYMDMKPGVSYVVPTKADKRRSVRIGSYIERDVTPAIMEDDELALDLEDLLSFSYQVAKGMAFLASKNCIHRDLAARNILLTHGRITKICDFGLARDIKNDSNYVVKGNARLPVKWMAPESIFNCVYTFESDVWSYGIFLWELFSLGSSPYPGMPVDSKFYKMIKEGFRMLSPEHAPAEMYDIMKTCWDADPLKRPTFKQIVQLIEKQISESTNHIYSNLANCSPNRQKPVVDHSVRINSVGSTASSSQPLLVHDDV

Turning to `Cc1ccc(-c2nc(N3CCC3)no2)cc1NC(=O)c1cnc2ccccn12` [F1], the IC50 (read-out: c-kit (Mo7e)) was found to be 0.049 µM. On the same count and under the same terms, under `Cc1ccc(-c2nc(N3CC(F)(F)C3)no2)cc1NC(=O)c1cnc2ccccn12` [F2] stands 0.013 µM; under `Cc1ccc(-c2nc(N3C[C@@H]4C[C@@H](C3)O4)no2)cc1NC(=O)c1cnc2ccccn12` [F3], 0.09 µM. For `Cc1ccc(-c2nc(N3CCC(F)(F)CC3)no2)cc1NC(=O)c1cnc2ccccn12` [F4], the IC50 (read-out: c-kit (Mo7e)) was 0.035 µM. On to `Cc1ccc(-c2nc(N3CCC(F)CC3)no2)cc1NC(=O)c1cnc2ccccn12` [F5], for which the IC50 (read-out: c-kit (Mo7e)) is 0.034 µM.

Turning to `Cc1ccc2ncc(C(=O)Nc3cc(-c4noc(N5CC(O)(C(F)(F)F)C5)n4)ccc3C)n2c1` [F6], for the setting “read-out: c-kit (Mo7e)”, the IC50 was 0.026 µM. In the case of `Cc1ccc(-c2noc(C3CCOC3)n2)cc1NC(=O)c1cnc2ccccn12` (stereo not drawn) [F7], the IC50 (read-out: c-kit (Mo7e)) turned out to be 0.078 µM. Still for that read-out and setting: under `Cc1ccc(-c2noc(C3CCCCO3)n2)cc1NC(=O)c1cnc2ccccn12` (stereo not drawn) [F8] stands 0.042 µM; under `COC(=O)N1CCCCC1c1nc(-c2ccc(C)c(NC(=O)c3cnc4ccccn34)c2)no1` (stereo not drawn) [F9], 0.035 µM. The molecule `Cc1ccc(-c2noc(C3CCC(F)(F)CO3)n2)cc1NC(=O)c1cnc2ccccn12` (stereo not drawn) [F10, N-(5-(5-(5,5-difluorotetrahydro-2H-pyran-2-yl)-1,2,4-oxadiazol-3-yl)-2-methylphenyl)imidazo[1,2-a]pyridine-3-carboxamide] had an IC50 (c-kit (Mo7e) μM) of 0.023 µM. Still for that read-out and setting: under `Cc1ccc(-c2noc([C@@H]3CCC(F)(F)CO3)n2)cc1NC(=O)c1cnc2ccccn12` [F11] stands 0.023 µM.

Regarding `Cc1ccc(-c2noc([C@H]3CCC(F)(F)CO3)n2)cc1NC(=O)c1cnc2ccccn12` [F12], the IC50 (read-out: c-kit (Mo7e)) was 0.032 µM. Take `Cc1ccc(-c2noc(C3CN(C(=O)OC(C)(C)C)C3)n2)cc1NC(=O)c1cnc2ccccn12` [F13, tert-butyl 3-(3-(3-(imidazo[1,2-a]pyridine-3-carboxamido)-4-methylphenyl)-1,2,4-oxadiazol-5-yl)azetidine-1-carboxylate]: the IC50 (read-out: c-kit (Mo7e)) was 0.623 µM.

As to `Cc1ccc(-c2noc(C3CN(S(C)(=O)=O)C3)n2)cc1NC(=O)c1cnc2ccccn12` [F14], the IC50 (read-out: c-kit (Mo7e)) is 0.042 µM.

As for `COC(=O)N1CC(c2nc(-c3ccc(C)c(NC(=O)c4cnc5ccccn45)c3)no2)C1` [F15, methyl 3-(3-(3-(imidazo[1,2-a]pyridine-3-carboxamido)-4-methylphenyl)-1,2,4-oxadiazol-5-yl)azetidine-1-carboxylate], the IC50 (read-out: c-kit (Mo7e)) turned out to be 0.02 µM. Regarding `CCCS(=O)(=O)N1CC(c2nc(-c3ccc(C)c(NC(=O)c4cnc5ccccn45)c3)no2)C1` [F16], the IC50 (read-out: c-kit (Mo7e)) is 0.035 µM. `Cc1ccc(-c2noc(CC3CCOCC3)n2)cc1NC(=O)c1cnc2ccccn12` [F17]: the IC50 (read-out: c-kit (Mo7e)) was found to be 0.027 µM. `Cc1ccc(-c2noc(CC3CCCO3)n2)cc1NC(=O)c1cnc2ccccn12` (stereo not drawn) [F18]: the IC50 (read-out: c-kit (Mo7e)) was determined as 0.064 µM. Consider `CCS(=O)(=O)N1CC(c2nc(-c3ccc(C)c(NC(=O)c4cnc5ccccn45)c3)no2)C1` [F19], for which, under “read-out: c-kit (Mo7e)”, the IC50 stood at 0.033 µM. Still for that read-out and setting: for `Cc1ccc(-c2noc(CCCN3CCOCC3)n2)cc1NC(=O)c1cnc2ccccn12` [F20] the value was 0.095 µM.

For the molecule `Cc1ccc(-c2noc(CN3CC(F)(F)C3)n2)cc1NC(=O)c1cnc2ccccn12` [F21], under “read-out: c-kit (Mo7e)”, the IC50 was 0.044 µM. `Cc1ccc(-c2noc(CN3CCOCC3)n2)cc1NC(=O)c1cnc2ccccn12` [F22, N-(2-methyl-5-(5-(morpholinomethyl)-1,2,4-oxadiazol-3-yl)phenyl)imidazo[1,2-a]pyridine-3-carboxamide]: the IC50 (read-out: c-kit (Mo7e)) worked out at 0.073 µM.

As for `Cc1ccc(-c2noc(C3CN(S(N)(=O)=O)C3)n2)cc1NC(=O)c1cnc2ccccn12` [F23, N-(2-methyl-5-(5-(1-sulfamoylazetidin-3-yl)-1,2,4-oxadiazol-3-yl)phenyl)imidazo[1,2-a]pyridine-3-carboxamide], the IC50 (read-out: c-kit (Mo7e)) turned out to be 0.088 µM. On the same count and under the same terms, for `Cc1ccc(-c2noc([C@@H]3CCN3C(=O)OC(C)(C)C)n2)cc1NC(=O)c1cnc2ccccn12` [F24] the value was 0.08 µM.

On to `Cc1ccc(-c2noc([C@@H]3CCN3S(C)(=O)=O)n2)cc1NC(=O)c1cnc2ccccn12` [F25], for which the IC50 (read-out: c-kit (Mo7e)) was 0.046 µM. For `COC(=O)NC1(c2nc(-c3ccc(C)c(NC(=O)c4cnc5ccccn45)c3)no2)COC1` [F26, methyl (3-(3-(3-(imidazo[1,2-a]pyridine-3-carboxamido)-4-methylphenyl)-1,2,4-oxadiazol-5-yl)oxetan-3-yl)carbamate], the IC50 (read-out: c-kit (Mo7e)) turned out to be 0.103 µM. On to `CC(C)(C)OC(=O)N1CC(c2nc(-c3ccc(F)c(NC(=O)c4cnc5ccccn45)c3)no2)C1` [F27, tert-butyl 3-(3-(4-fluoro-3-(imidazo[1,2-a]pyridine-3-carboxamido)phenyl)-1,2,4-oxadiazol-5-yl)azetidine-1-carboxylate], for which the IC50 (read-out: c-kit (Mo7e)) turned out to be 0.997 µM. Consider `CCS(=O)(=O)N1CC(c2nc(-c3ccc(F)c(NC(=O)c4cnc5ccccn45)c3)no2)C1` [F28, N-(5-(5-(1-(ethylsulfonyl)azetidin-3-yl)-1,2,4-oxadiazol-3-yl)-2-fluorophenyl)imidazo[1,2-a]pyridine-3-carboxamide], for which the IC50 (read-out: c-kit (Mo7e)) was determined as 0.12 µM. The same measure, in the same setting: for `Cc1ccc(-c2noc(CN3CCC(F)(F)C3)n2)cc1NC(=O)c1cnc2ccccn12` [F29] the value was 0.016 µM. Consider `Cc1ccc(-c2noc(CN3CCC(F)(F)CC3)n2)cc1NC(=O)c1cnc2ccccn12` [F30], for which the IC50 (read-out: c-kit (Mo7e)) worked out at 0.02 µM. For `CCCCS(=O)(=O)N1CC(c2nc(-c3ccc(C)c(NC(=O)c4cnc5ccccn45)c3)no2)C1` [F31], the IC50 (read-out: c-kit (Mo7e)) turned out to be 0.054 µM. For `Cc1ccc(-c2noc([C@@H]3CC(F)(F)CN3S(C)(=O)=O)n2)cc1NC(=O)c1cnc2ccccn12` [F32], the IC50 (read-out: c-kit (Mo7e)) amounted to 0.055 µM.

For the molecule `COC(=O)N1CCC(c2nc(-c3ccc(C)c(NC(=O)c4cnc5ccccn45)c3)no2)CC1` [F33], for the setting “read-out: c-kit (Mo7e)”, the IC50 was determined as 0.084 µM. For `Cc1ccc(-c2noc(C3CCN(S(C)(=O)=O)CC3)n2)cc1NC(=O)c1cnc2ccccn12` [F34], the IC50 (read-out: c-kit (Mo7e)) came out at 0.095 µM. Consider `Cc1ccc(-c2noc(C3CN(S(C)(=O)=O)CCO3)n2)cc1NC(=O)c1cnc2ccccn12` (stereo not drawn) [F35], for which the IC50 (read-out: c-kit (Mo7e)) turned out to be 0.066 µM. As to `Cc1ccc(-c2noc([C@@H]3CCCN3S(C)(=O)=O)n2)cc1NC(=O)c1cnc2ccccn12` [F36], the IC50 (read-out: c-kit (Mo7e)) turned out to be 0.093 µM.

Take `Cc1ccc(-c2noc([C@H]3CN(S(C)(=O)=O)CCO3)n2)cc1NC(=O)c1cnc2ccccn12` [F37]: the IC50 (read-out: c-kit (Mo7e)) turned out to be 0.06 µM. On to `Cc1ccc(-c2noc(C[C@@H]3CCN(S(C)(=O)=O)C3)n2)cc1NC(=O)c1cnc2ccccn12` [F38], for which, for the setting “read-out: c-kit (Mo7e)”, the IC50 worked out at 0.09 µM. Turning to `Cc1ccc(-c2noc([C@@H]3CCCN(S(C)(=O)=O)C3)n2)cc1NC(=O)c1cnc2ccccn12` [F39], the IC50 (read-out: c-kit (Mo7e)) was 0.049 µM. With `COC(=O)N1CCC[C@H]1Cc1nc(-c2ccc(C)c(NC(=O)c3cnc4ccccn34)c2)no1` [F40], the IC50 (read-out: c-kit (Mo7e)) was 0.094 µM.

Regarding `Cc1ccc(-c2noc(C[C@@H]3CCCN3S(C)(=O)=O)n2)cc1NC(=O)c1cnc2ccccn12` [F41], the IC50 (read-out: c-kit (Mo7e)) stood at 0.092 µM. On the same count and under the same terms, for `Cc1ccc(-c2noc(CN3CC(F)(F)C(F)(F)C3)n2)cc1NC(=O)c1cnc2ccccn12` [F42] the value was 0.013 µM. The same measure, in the same setting: for `Cc1ccc(-c2noc(C3CN(S(=O)(=O)C(F)F)C3)n2)cc1NC(=O)c1cnc2ccccn12` [F43] the value was 0.024 µM; for `Cc1ccc(-c2noc(CC3CCCCO3)n2)cc1NC(=O)c1cnc2ccccn12` (stereo not drawn) [F44], 0.017 µM; for `O=C(Nc1cc(-c2noc(CN3CCC(F)(F)C3)n2)ccc1F)c1cnc2ccccn12` [F45], 0.09 µM. Consider `O=C(Nc1cc(-c2noc(CN3CCC(F)(F)CC3)n2)ccc1F)c1cnc2ccccn12` [F46], for which the IC50 (read-out: c-kit (Mo7e)) was determined as 0.073 µM. In the case of `Cc1ccc(-c2noc([C@@H]3CCN3S(=O)(=O)C(C)C)n2)cc1NC(=O)c1cnc2ccccn12` [F47], the IC50 (read-out: c-kit (Mo7e)) stood at 0.047 µM. On the same count and under the same terms, under `COC(=O)N1CC(c2nc(-c3ccc(C)c(NC(=O)c4cnn5ccccc45)c3)no2)C1` [F48] stands 0.08 µM. Turning to `Cc1ccc(-c2noc(CC3CCCOC3)n2)cc1NC(=O)c1cnc2ccccn12` (stereo not drawn) [F49], the IC50 (read-out: c-kit (Mo7e)) is 0.04 µM. For the molecule `Cc1ccc(-c2noc([C@H](C)N3CC(F)(F)C3)n2)cc1NC(=O)c1cnc2ccccn12` [F50], the IC50 (read-out: c-kit (Mo7e)) is 0.077 µM. Regarding `Cc1ccc(-c2noc([C@H](C)N3CCC(F)(F)C3)n2)cc1NC(=O)c1cnc2ccccn12` [F51], where the note is “read-out: c-kit (Mo7e)”, the IC50 was found to be 0.043 µM. Turning to `COC(=O)N1CC(c2nc(-c3ccc(C)c(NC(=O)c4cnc5ccc(C(F)(F)F)cn45)c3)no2)C1` [F52, methyl 3-(3-(4-methyl-3-(6-(trifluoromethyl)imidazo[1,2-a]pyridine-3-carboxamido)phenyl)-1,2,4-oxadiazol-5-yl)azetidine-1-carboxylate], the IC50 (read-out: c-kit (Mo7e)) came to 0.218 µM. As to `CCOC(=O)N1CC(c2nc(-c3ccc(C)c(NC(=O)c4cnc5ccccn45)c3)no2)C1` [F53], where the note is “read-out: c-kit (Mo7e)”, the IC50 turned out to be 0.093 µM.

In the case of `COC(=O)N1CC(c2nc(-c3ccc(C)c(NC(=O)c4cnc5cc(F)ccn45)c3)no2)C1` [F54], where the note is “read-out: c-kit (Mo7e)”, the IC50 is 0.037 µM.

Consider `COC(=O)N1CC(c2nc(-c3ccc(C)c(NC(=O)c4cnc5ccc(F)cn45)c3)no2)C1` [F55], for which the IC50 (read-out: c-kit (Mo7e)) was determined as 0.054 µM. On to `COC(=O)N1CC(c2nc(-c3ccc(C)c(NC(=O)c4cnc5cc(-c6ccn(C)n6)ccn45)c3)no2)C1` [F56, methyl 3-(3-(4-methyl-3-(7-(1-methyl-1H-pyrazol-3-yl)imidazo[1,2-a]pyridine-3-carboxamido)phenyl)-1,2,4-oxadiazol-5-yl)azetidine-1-carboxylate], for which the IC50 (read-out: c-kit (Mo7e)) is 0.006 µM.

On to `COC(=O)N1CC(c2nc(-c3ccc(C)c(NC(=O)c4cnc5cc(C(F)(F)F)ccn45)c3)no2)C1` [F57, methyl 3-(3-(4-methyl-3-(7-(trifluoromethyl)imidazo[1,2-a]pyridine-3-carboxamido)phenyl)-1,2,4-oxadiazol-5-yl)azetidine-1-carboxylate], for which the IC50 (read-out: c-kit (Mo7e)) stood at 0.13 µM.

The record behind these values is US8754071B2 (priority 2011, dated 2014).
